Reference: patent US9637469B2, “Pyridine derivative” (Teijin Pharma Limited, priority 2012, dated 2017)

Biological target: T1, human URAT1 (Homo sapiens, UniProt Q96S37)
T1 construct: Full-length cDNA of human URAT1 (hURAT1)
T1 sequence (Q96S37 1-553): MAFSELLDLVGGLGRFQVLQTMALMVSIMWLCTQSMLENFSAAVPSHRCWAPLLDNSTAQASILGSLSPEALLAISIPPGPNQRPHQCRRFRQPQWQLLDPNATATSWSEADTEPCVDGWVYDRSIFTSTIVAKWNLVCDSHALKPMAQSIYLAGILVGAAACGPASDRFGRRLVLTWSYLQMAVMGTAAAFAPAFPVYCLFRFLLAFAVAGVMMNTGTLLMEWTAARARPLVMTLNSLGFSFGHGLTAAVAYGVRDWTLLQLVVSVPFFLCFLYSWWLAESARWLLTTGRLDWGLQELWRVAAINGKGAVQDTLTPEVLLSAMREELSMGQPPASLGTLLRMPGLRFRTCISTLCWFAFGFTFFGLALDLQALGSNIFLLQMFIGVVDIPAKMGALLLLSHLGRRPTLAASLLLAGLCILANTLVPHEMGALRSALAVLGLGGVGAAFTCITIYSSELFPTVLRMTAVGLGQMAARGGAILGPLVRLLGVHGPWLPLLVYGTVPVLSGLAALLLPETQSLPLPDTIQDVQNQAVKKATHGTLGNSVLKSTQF
Experiment: Test for inhibition of uric acid transport using human URAT1-expressing cells;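 further: three stars up to 0.2 µM two stars 0.2-2 µM one star 2-20 µM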
Type: cell-based
Settings: HEK 293 cells expressing human URAT1, 14C-labeled uric acid 25 μM, uptake 37° C. for 5 min; for IC50: read-out: Inhibitory Activity (IC50 of uric acid transport inhibition)
Procedure, shortened: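 IC50 values reflect inhibition of ¹⁴C-uric acid uptake (25 μM final, 5 min, 37 °C) by compound. Cells were HEK293 stably expressing full-length human URAT1, preincubated in Na-gluconate-substituted HBSS. Radioactivity in lysates was expressed relative to DMSO control as 100%.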

| Structure (SMILES) | Inhibitory Activity (IC50 of uric acid transport inhibition) | IC50 [µM] |
| --- | --- | --- |
| Cc1cncc(-c2nc(C)c(C(=O)O)n2Cc2cc(C)ccc2C)c1 [Compound A180, 1-(2,5-dimethylbenzyl)-4-methyl-2-(5-methylpyridin-3-yl)-1H-imidazole-5-carboxylic acid] | * * * | – |
| O=C(O)c1ccc(-c2cncc(F)c2)n1Cc1cc(Cl)ccc1Cl [Compound B14, 1-(2,5-dichlorobenzyl)-2-(5-fluoropyridin-3-yl)-1H-pyrrole-5-carboxylic acid] | * * * | – |
| Cc1nc(Oc2ccccn2)n(Cc2cc(Cl)ccc2Cl)c1C(=O)O [Compound A247, 1-(2,5-dichlorobenzyl)-4-methyl-2-(pyridin-2-yloxy)-1H-imidazole-5-carboxylic acid] | * * | – |
| COc1cncc(-c2nc(C)c(C(=O)O)n2Cc2cccc3ccccc23)c1 [Compound A120] | – | 2 to 20 |
| Cc1nc(-c2cnc3ccccc3c2)n(Cc2cccc3ccccc23)c1C(=O)O [Compound A66] | – | 2 to 20 |
| O=C(O)c1ccc(-c2cccnc2)n1Cc1csc2cccc(C(F)(F)F)c12 [Compound B9, 2-(pyridin-3-yl)-1-((4-(trifluoromethyl)benzo[b]thiophen-3-yl)methyl)-1H-pyrrole-5-carboxylic acid] | * * * | – |
| Cc1nc(-c2cccnc2)n(Cc2cc(F)cc3ccsc23)c1C(=O)O [Compound A85, 1-((5-fluorobenzo[b]thiophen-7-yl)methyl)-4-methyl-2-(pyridin-3-yl)-1H-imidazole-5-carboxylic acid] | * * * | – |
| CS(=O)(=O)NC(=O)c1ccc(-c2cccnc2)n1Cc1cccc2ccccc12 [Compound B24, N-(methylsulfonyl)-1-(naphthalen-1-ylmethyl)-2-(pyridin-3-yl)-1H-pyrrole-5-carboxamide] | * * * | – |
| Cc1nc(-c2cccnc2)n(Cc2cccc(C#N)c2)c1C(=O)O [Compound A65] | – | 2 to 20 |

The remaining lines, values ahead:

| Inhibitory Activity (IC50 of uric acid transport inhibition) | IC50 [µM] | Structure (SMILES) |
| --- | --- | --- |
| * * | – | Cc1nc(-c2cccnc2)n(Cc2cc(F)ccc2Cl)c1C(=O)O [Compound A41, 1-(2-chloro-5-fluorobenzyl)-4-methyl-2-(pyridin-3-yl)-1H-imidazole-5-carboxylic acid] |
| * * * | – | O=C(O)c1c(CN2CCCCC2)nc(-c2cncc(Cl)c2)n1Cc1cc(Cl)ccc1Cl [Compound A195, 2-(5-chloropyridin-3-yl)-1-(2,5-dichlorobenzyl)-4-(piperidin-1-ylmethyl)-1H-imidazole-5-carboxylic acid] |
| * * * | – | CCC(O)(CC)c1nc(-c2cncc(Cl)c2)n(Cc2cc(Cl)ccc2Cl)c1C(=O)O [Compound A216, 2-(5-chloropyridin-3-yl)-1-(2,5-dichlorobenzyl)-4-(3-hydroxypentane-3-yl)-1H-imidazole-5-carboxylic acid] |
| * * | – | Cc1nc(-c2cncc(Cl)c2)n(C(C)c2cc(Cl)ccc2Cl)c1C(=O)O (stereo not shown) [Compound A223, 2-(5-chloropyridin-3-yl)-1-(1-(2,5-dichlorophenyl)ethyl)-4-methyl-1H-imidazole-5-carboxylic acid] |
| * * * | – | Cc1nc(-c2cncc(C3CC3)c2)n(Cc2cc(Cl)ccc2Cl)c1C(=O)O [Compound A168, 2-(5-cyclopropylpyridin-3-yl)-1-(2,5-dichlorobenzyl)-4-methyl-1H-imidazole-5-carboxylic acid] |
| – | 2 to 20 | Cc1nc(-c2cncc(OCCCO)c2)n(Cc2cc(Cl)ccc2Cl)c1C(=O)O [Compound A187] |
| * * * | – | O=C(O)c1c(C2CC2)nc(-c2cncc(F)c2)n1Cc1cc(Cl)ccc1Cl [Compound A155, 4-cyclopropyl-1-(2,5-dichlorobenzyl)-2-(5-fluoropyridin-3-yl)-1H-imidazole-5-carboxylic acid] |
